# Counter-ions that a name gives are not always drawn. Like-named read-outs stand apart in the source and are kept apart here.
# Experiments:
# Type in all cases: cell-based, human
# [1] = tested on: HT-29 cells; assay: Inhibition test for sphere-forming ability of cancer cells (Test Example 1), HT-29; conditions: for IC50: concentration for 50% inhibition of cell proliferation, read-out: IC50 (μmol/L) HT-29 (Sphere IC50 value); for (100%-inhibition rate of cell proliferation) at 1 μmol/L, HT-29: value with %
# From the text: (§1) The reliable methods established for measuring the self-renewal ability of cells which is one of the CSC's properties include a method for measuring the sphere-forming ability of cancer cells in non-adherent condition in the absence of serum (Cancer Res 65, 5506-5511 (2005)). Human colorectal cancer-derived HCT-116 cells, human colon-adenocarcinoma-derived HT-29 cells, and human pharyngeal cancer-derived FaDu cells were available from American Type Culture Collection (ATCC). HCT-116 cells and HT-29 cells were cultured at 37° C. under 5% CO2 using the McCoy's 5a medium containing 10% fetal bovine serum (FBS) and 1% penicillin/streptomycin, and FaDu cells were cultured at 37° C. under 5% CO2 using the MEM medium containing 10% FBS, 1% non-essential amino acid, 1% sodium pyruvate, and 1% penicillin/streptomycin. HCT-116 cells, HT-29 cells, and FaDu cells were seeded in a 384 Well Black Clear Bottom Ultra-Low Attachment Microplate (Corning Cat. No. 3827) in an amount of 350-800 cells/well using the DMEM/F12 medium containing 2% B27 supplement (GIBCO), 20 ng/mL epidermal growth factor (EGF) (peprotech), 10 ng/mL basic fibroblast growth factor (bFGF) (peprotech), 5 μg/mL insulin (Sigma), and 1% penicillin/streptomycin. Each test compound was added into each well to adjust the final concentration of DMSO to 0.1%, and the cells were cultured for 4 days. The number of viable cells in each well was then measured with CellTiter-Glo® Luminescent Cell Viability Assay (Promega) to calculate the concentration of each test compound for 50% inhibition of cell proliferation (Sphere IC50 value; μmol/L).
# (§2) The experiment of Test Example 1 was performed for each compound of each Example. The concentration of each test compound for 50% inhibition of cell proliferation (Sphere IC50 value; μmol/L) is shown in the following Table.
# [2] = tested on: HCT-116 cells; assay: Inhibition test for sphere-forming ability of cancer cells (Test Example 1), HCT-116; conditions: for IC50: concentration for 50% inhibition of cell proliferation, read-out: IC50 (μmol/L) HCT-116 (Sphere IC50 value); for inhibitory effect on the sphere-forming ability of cancer cells: Test Example 1, summary in words, cell line not given (HCT-116, HT-29, FaDu tested)
# From the text: as §1, §2
# [3] = tested on: FaDu cells; assay: Inhibition test for sphere-forming ability of cancer cells (Test Example 1), FaDu; conditions: for IC50: concentration for 50% inhibition of cell proliferation, read-out: IC50 (μmol/L) FaDu (Sphere IC50 value); for (100%-inhibition rate of cell proliferation) at 1 μmol/L, FaDu: value with %
# From the text: as §1, §2
# [4] = HCT-116 cells, 1 μmol/L, value with %
# [5] = Homo sapiens, read-out: (100%-inhibition rate of cell proliferation) at 1 μmol/L, 1 μmol/L, value with %
Compound,IC50 [1] [µmol/L],IC50 ([2]; HCT-116 cells) [µmol/L],IC50 [3] [µmol/L],other results
CCOc1ccc(/C=C/C(=O)Nc2cn(Cc3cccc(OC(F)(F)F)c3)cn2)cn1 [Example 112],,,,"IC50 ([1]; Homo sapiens): 0.04 µmol/L; IC50 ([2]; Homo sapiens, HCT-116 cells): > 10 µmol/L; inhibitory effect on the sphere-forming ability of cancer cells [2]: particularly potent inhibitory effect; IC50 ([3]; Homo sapiens): 0.07 µmol/L"
COc1ccc(C(=O)Nc2cn(Cc3ccc(C(F)(F)F)cc3)cn2)cc1OC [Example 287],,,,"(100%-inhibition rate of cell proliferation) at 1 μmol/L, HT-29 [1]: 124%; (100%-inhibition rate of cell proliferation) at 1 μmol/L, HCT-116 [2, 4]: 95.8%; (100%-inhibition rate of cell proliferation) at 1 μmol/L, FaDu [3]: 53.0%"
O=C(/C=C/c1ccc(C(F)(F)F)nc1)Nc1cn(Cc2cccc(Cl)c2)cn1 [Example 44],,,,"IC50 ([1]; Homo sapiens): 0.05 µmol/L; IC50 ([2]; Homo sapiens, HCT-116 cells): 0.1 µmol/L; IC50 ([3]; Homo sapiens): 0.07 µmol/L"
COc1ccc(C(=O)Nc2cn(Cc3ccc(C(F)(F)F)o3)cn2)cc1OC [Example 171],,,,"(100%-inhibition rate of cell proliferation) at 1 μmol/L, HT-29 [1]: 33.8%; (100%-inhibition rate of cell proliferation) at 1 μmol/L, HCT-116 [2, 4]: 36.4%; (100%-inhibition rate of cell proliferation) at 1 μmol/L, FaDu [3]: 29.6%"
Cc1ccc(F)c(Cn2cnc(NC(=O)/C=C/c3cccc(Oc4ccccc4)c3)c2)c1F [Example 114],,,,"IC50 ([1]; Homo sapiens): 0.69 µmol/L; IC50 ([2]; Homo sapiens, HCT-116 cells): 0.62 µmol/L; IC50 ([3]; Homo sapiens): 0.72 µmol/L"
"O=C(/C=C/c1cc(O)ccc1O)Nc1cn(Cc2cccc(C(F)(F)F)c2)cn1 [Example 235, (2E)-3-(2,5-Dihydroxyphenyl)-N-{1-[3-(trifluoromethyl)benzyl]-1H-imidazol-4-yl}prop-2-enamide Hydrochloride]",,,,"IC50 ([1]; Homo sapiens): 8.77 µmol/L; IC50 ([2]; Homo sapiens, HCT-116 cells): 3.84 µmol/L"
O=C(Nc1cn(Cc2cccc(OC(F)(F)F)c2)cn1)c1ccc(OCC(F)(F)F)nc1 [Example 222],4.81,> 10,9.74,
CCCCNC(=O)c1ccc(/C=C/C(=O)Nc2cn(Cc3cccc(Cl)c3)cn2)cn1 [Example 27],,,,"IC50 ([1]; Homo sapiens): 3.38 µmol/L; IC50 ([2]; Homo sapiens, HCT-116 cells): > 10 µmol/L; IC50 ([3]; Homo sapiens): 5.84 µmol/L"
COc1ccc(C(=O)Nc2cn(Cc3cc(Cl)nc(Cl)c3)cn2)cc1OC [Example 170],,,,"(100%-inhibition rate of cell proliferation) at 1 μmol/L, HT-29 [1]: 24.9%; (100%-inhibition rate of cell proliferation) at 1 μmol/L, HCT-116 [2, 4]: 33.8%; (100%-inhibition rate of cell proliferation) at 1 μmol/L, FaDu [3]: 27.1%"
O=C(Nc1cn(Cc2cccc(C(F)(F)F)c2)cn1)c1cc2ccccc2cn1 [Example 178],8.13,9.6,,
Cc1ccc(/C=C/C(=O)Nc2cn(Cc3cccc(Cl)c3)cn2)cc1 [Example 49],0.06,0.1,0.08,inhibitory effect on the sphere-forming ability of cancer cells [2]: particularly potent inhibitory effect
O=C(/C=C/c1cnc2ccccc2c1)Nc1cn(Cc2cccc(Cl)c2)cn1 [Example 92],0.62,1.61,0.74,
O=C(Nc1cn(Cc2cccc(Cl)c2)cn1)c1ccc(-n2cccn2)nc1 [Example 196],3.78,0.76,0.89,
O=C(/C=C/c1cccc(Cl)c1)Nc1cn(Cc2cccc(Cl)c2)cn1 [Example 58],4.89,6.99,6.52,
O=C(Nc1cn(Cc2cccc(Cl)c2)cn1)c1ccc(OCc2ccccc2)cc1 [Example 197],,,,"(100%-inhibition rate of cell proliferation) at 1 μmol/L, HT-29 [1]: 39.0%; (100%-inhibition rate of cell proliferation) at 1 μmol/L, HCT-116 [2, 4]: 44.3%; (100%-inhibition rate of cell proliferation) at 1 μmol/L, FaDu [3]: 28.9%"
Cc1ccc(F)c(Cn2cnc(NC(=O)/C=C/c3cccnc3)c2)c1F [Example 113],,,,"IC50 ([1]; Homo sapiens): 0.53 µmol/L; IC50 ([2]; Homo sapiens, HCT-116 cells): 0.54 µmol/L; IC50 ([3]; Homo sapiens): > 10 µmol/L"
O=C(Nc1cn(Cc2cccc(C(F)(F)F)c2)cn1)c1cnc(Br)c(F)c1 [Example 227],8,9.06,,
CC(C)Oc1ccc(C(=O)Nc2cn(Cc3cccc(Cl)c3)cn2)cc1 [Example 140],,,,"viability at 1 µM [1, 5]: 83%; viability at 1 µM ([2]; Homo sapiens, read-out: (100%-inhibition rate of cell proliferation) at 1 μmol/L, HCT-116 cells, 1 μmol/L, value with %): 31.4%; viability at 1 µM [3, 5]: 81.8%"
Cn1cc(/C=C/C(=O)Nc2cn(Cc3cccc(Cl)c3)cn2)ccc1=O [Example 12],,,,"IC50 ([1]; Homo sapiens): 0.92 µmol/L; IC50 ([2]; Homo sapiens, HCT-116 cells): 7.54 µmol/L; IC50 ([3]; Homo sapiens): 1.44 µmol/L"
"COC(=O)c1ccc(/C=C/C(=O)Nc2cn(Cc3cccc(Cl)c3)cn2)cn1 [Example 25, Methyl (E)-5-(3-((1-(3-chlorobenzyl)-1H-imidazol-4-yl)amino)-3-oxoprop-1-en-1-yl)picolinate]",,,,"IC50 ([1]; Homo sapiens): 2.61 µmol/L; IC50 ([2]; Homo sapiens, HCT-116 cells): > 10 µmol/L; IC50 ([3]; Homo sapiens): 0.89 µmol/L"
O=C(/C=C/c1ccc2ccccc2c1)Nc1cn(Cc2cccc(Cl)c2)cn1 [Example 95],3.23,> 10,0.99,
O=C(Nc1cn(Cc2cccc(C(F)(F)F)c2)cn1)c1cc2cnccc2s1 [Example 194],2.84,6.05,,
COc1ccc(C(=O)Nc2cn(Cc3cccc(Cl)c3)cn2)c(OC)n1 [Example 189],4.64,4.94,,
"O=C(Nc1cn(Cc2cccc(C(F)(F)F)c2)cn1)c1ccc(-c2ccc(CO)nc2)cc1 [Example 246, 4-[6-(Hydroxymethyl)pyridin-3-yl]-N-{-[3-(trifluoromethyl)benzyl]-1H-imidazol-4-yl}benzamide]",,,,"IC50 ([1]; Homo sapiens): 6.36 µmol/L; IC50 ([2]; Homo sapiens, HCT-116 cells): 6.72 µmol/L"
"C=Cc1ncc(C(=O)Nc2cn(Cc3cccc(C(F)(F)F)c3)cn2)cc1F [Example 99, 6-Ethenyl-5-fluoro-N-{1-[3-(trifluoromethyl)benzyl]-1H-imidazol-4-yl}nicotinamide]",,,,"IC50 ([1]; Homo sapiens): 2.52 µmol/L; IC50 ([2]; Homo sapiens, HCT-116 cells): 6.12 µmol/L"
"O=C(Nc1cn(Cc2cccc(C(F)(F)F)c2)cn1)c1ccccc1CO [Example 250, 2-(Hydroxymethyl)-N-{1-[3-(trifluoromethyl)benzyl]-1H-imidazol-4-yl}benzamide]",,,,"IC50 ([1]; Homo sapiens): 8.19 µmol/L; IC50 ([2]; Homo sapiens, HCT-116 cells): > 10 µmol/L"
COc1ccc(OC)c(/C=C/C(=O)Nc2cn(Cc3cccc(C(F)(F)F)c3)cn2)c1 [Example 233],,,,"IC50 ([1]; Homo sapiens): 5.46 µmol/L; IC50 ([2]; Homo sapiens, HCT-116 cells): 4.35 µmol/L"
COc1ccc(NC(=O)c2cn(Cc3cc(F)c(F)c(F)c3)cn2)cn1 [Example 254],6.45,> 10,,

# More lines, main results first:
IC50 [1] [µmol/L],IC50 ([2]; HCT-116 cells) [µmol/L],IC50 [3] [µmol/L],Compound,other results
0.09,0.83,0.07,O=C(/C=C/c1ccc(N2CCOCC2)cc1)Nc1cn(Cc2cccc(Cl)c2)cn1 [Example 96],inhibitory effect on the sphere-forming ability of cancer cells [2]: particularly potent inhibitory effect
< 0.01,0.07,0.01,O=C(/C=C/c1ccc([N+](=O)[O-])cc1)Nc1cn(Cc2cccc(Cl)c2)cn1 [Example 68],inhibitory effect on the sphere-forming ability of cancer cells [2]: particularly potent inhibitory effect
0.06,0.58,0.08,COc1cc(C(=O)Nc2cn(Cc3cccc(Cl)c3)cn2)cnc1OC [Example 218],inhibitory effect on the sphere-forming ability of cancer cells [2]: particularly potent inhibitory effect
9.79,> 10,8.2,O=C(/C=C/c1cccc(C(F)(F)F)c1)Nc1cn(Cc2cccc(Cl)c2)cn1 [Example 60],
5.53,2.37,5.14,O=C(/C=C/c1ccco1)Nc1cn(Cc2cccc(Cl)c2)cn1 [Example 87],
3.43,7.16,5.16,O=C(Nc1cn(Cc2cccc(Cl)c2)cn1)c1ccc2nccn2c1 [Example 176],
0.03,0.23,0.06,COc1ccc(/C=C/C(=O)Nc2cn(Cc3cccc(Cl)c3)cn2)c(OC)c1 [Example 71],inhibitory effect on the sphere-forming ability of cancer cells [2]: particularly potent inhibitory effect
0.38,0.82,0.54,O=C(/C=C/c1ccc(F)cc1F)Nc1cn(Cc2cccc(Cl)c2)cn1 [Example 69],
0.05,0.08,0.06,O=C(/C=C/c1ccncc1)Nc1cn(Cc2cccc(Cl)c2)cn1 [Example 97],inhibitory effect on the sphere-forming ability of cancer cells [2]: particularly potent inhibitory effect
0.67,0.83,0.89,CC(C)Oc1ccc(C(=O)Nc2cn(Cc3cccc(Cl)c3)cn2)cn1 [Example 207],
8.49,> 10,,COc1ccc(NC(=O)c2cn(Cc3cccc(Cl)c3)cn2)cn1 [Example 263],
9.07,8.16,,O=C(Nc1cn(Cc2cccc(C(F)(F)F)c2)cn1)c1ccc2ncccc2n1 [Example 184],
5.6,> 10,,O=C(Nc1cn(Cc2cccc(C(F)(F)F)c2)cn1)c1cccnn1 [Example 182],
